Test [1] concerns BaF3. Kind of test: cells. The note with it: Mus musculus, BaF3, 72 h.
In test [2] the target is Epidermal growth factor receptor (Homo sapiens, UniProt P00533, EX19DEL).
Test [3] addresses T1, Mitogen-activated protein kinase 1 and 3 (ERK2 and ERK1) (Mus musculus) (UniProt P63085+Q63844). Kind of test: Inhibition of ERK1/2 phosphorylation in mouse BaF3 cells harboring L858R mutant assessed as ERK1/2 phosphorylation at 10 to 1000 nM incubated for 8 hrs by Western blot analysis. It counts as cell-based. The note with it: dose 10-1000 nM. Background: A western blot detects proteins with antibodies after separation by electrophoresis.

The target in test [4] is T2, Serine/threonine-protein kinase 17B (Homo sapiens) (UniProt O94768).
T2 sequence (whole entry): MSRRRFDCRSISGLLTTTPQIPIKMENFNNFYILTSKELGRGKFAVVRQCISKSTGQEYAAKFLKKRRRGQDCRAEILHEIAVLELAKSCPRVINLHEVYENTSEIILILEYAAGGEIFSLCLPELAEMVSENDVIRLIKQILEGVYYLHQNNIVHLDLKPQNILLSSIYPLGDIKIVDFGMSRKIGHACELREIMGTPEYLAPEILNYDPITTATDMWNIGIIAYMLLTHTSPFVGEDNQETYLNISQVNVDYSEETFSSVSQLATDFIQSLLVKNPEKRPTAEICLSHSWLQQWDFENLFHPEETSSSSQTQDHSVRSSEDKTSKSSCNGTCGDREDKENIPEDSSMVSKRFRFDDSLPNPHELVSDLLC
The test can be described thus: Binding affinity to recombinant […] (unknown origin) assessed as change in melting temperature 10 uM by differential scanning fluorimetry.

Test [5] has as its target Epidermal growth factor receptor (Homo sapiens, UniProt P00533, L858R).
The subject of test [6] is Epidermal growth factor receptor (Homo sapiens), P04626+P00533+Q15303+P21860 [L858R]. The note with it: Mus musculus; BaF3; dose 10-1000 nM, time 8.0 hrs.
In test [7] the target is Epidermal growth factor receptor (Homo sapiens, UniProt P00533).
The subject of test [8] is BaF3. The test can be described thus: cells. It counts as functional, cell-based. The note with it: Mus musculus, BaF3, 72 h.
Description: Antiproliferative activity against mouse BaF3 cells expressing Del19 assessed as cell viability measured after 72 hrs hrs by CellTiter Glo assay
Test [9] concerns the target T1, Mitogen-activated protein kinase 1 and 3 (ERK2 and ERK1) (Mus musculus). It counts as cell-based. The note with it: BaF3, dose 10-1000 nM, time 8.0 hrs.
For test [10] the target is unchanged. It counts as cell-based. The note with it: BaF3, dose 10-1000 nM, time 8.0 hrs. This is another data set of the same source.
Test [11] concerns BaF3. The test can be described thus: cells. It counts as functional, cell-based. The note with it: Mus musculus, BaF3, 72 h. This is another data set of the same source.
Test [12] concerns the target Dual specificity tyrosine-phosphorylation-regulated kinase 1A (Homo sapiens) (UniProt Q13627). The test can be described thus: Binding affinity to recombinant DYRK1 (unknown origin) assessed as change in melting temperature 10 uM by differential scanning fluorimetry. For orientation: In DSF a fluorescence change marks the thermal transition of the protein.
Test [13] has as its target RAC-alpha serine/threonine-protein kinase (Mus musculus) (UniProt P31750). The test can be described thus: Inhibition of AKT phosphorylation in mouse BaF3 cells harboring Del19 mutant assessed as […] phosphorylation at 10 to 1000 nM incubated for 8 hrs by Western blot analysis. The note with it: dose 10-1000 nM. It counts as cell-based.
The target in test [14] is T1, Mitogen-activated protein kinase 1 and 3 (ERK2 and ERK1) (Mus musculus). The test can be described thus: Inhibition of ERK1/2 phosphorylation in mouse BaF3 cells harboring Del19 mutant assessed as ERK1/2 phosphorylation at 10 to 1000 nM incubated for 8 hrs by Western blot analysis. It counts as cell-based. The note with it: dose 10-1000 nM.
The test system of test [15] is BaF3. Kind of test: cells. It counts as functional, cell-based. The note with it: Mus musculus, BaF3, 72 h. This is another data set of the same source.
Test [16] has as its system BaF3. Kind of test: cells. Conditions: Mus musculus, BaF3, 72 h. The source holds these as a separate data set.
For test [17], the target named is RAC-alpha serine/threonine-protein kinase (Mus musculus) (UniProt P31750). It counts as cell-based. Conditions: BaF3, dose 10-1000 nM, time 8.0 hrs.
Test [18] has as its system BaF3. The test can be described thus: cells. Conditions: Mus musculus, BaF3, 72 h. This is another data set of the same source.
Description: Antiproliferative activity against mouse BaF3 cells expressing EGFR WT assessed as cell viability measured after 72 hrs hrs by CellTiter Glo assay
In test [19] the target is RAC-alpha serine/threonine-protein kinase (Mus musculus) (UniProt P31750). The test can be described thus: Inhibition of AKT phosphorylation in mouse BaF3 cells harboring L858R mutant assessed as […] phosphorylation at 10 to 1000 nM incubated for 8 hrs by Western blot analysis. It counts as cell-based. Conditions: dose 10-1000 nM.
Test [20] deals with T3, Serine/threonine-protein kinase 17A (Homo sapiens) (UniProt Q9UEE5).
T3 sequence (whole entry): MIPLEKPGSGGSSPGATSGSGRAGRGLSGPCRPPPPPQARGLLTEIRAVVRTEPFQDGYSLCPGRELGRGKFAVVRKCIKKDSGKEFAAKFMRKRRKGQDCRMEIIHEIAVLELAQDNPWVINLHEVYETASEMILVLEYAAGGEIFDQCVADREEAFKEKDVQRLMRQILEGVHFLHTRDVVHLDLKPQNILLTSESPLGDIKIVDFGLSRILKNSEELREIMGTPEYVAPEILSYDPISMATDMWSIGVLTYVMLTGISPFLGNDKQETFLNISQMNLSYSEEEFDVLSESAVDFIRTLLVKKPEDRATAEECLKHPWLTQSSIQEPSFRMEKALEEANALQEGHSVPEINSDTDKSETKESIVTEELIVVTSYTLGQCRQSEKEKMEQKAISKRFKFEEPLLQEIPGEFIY
Kind of test: Binding affinity to recombinant STK17A (unknown origin) assessed as change in melting temperature 10 uM by differential scanning fluorimetry.

The target in test [21] is T4, Dual specificity tyrosine-phosphorylation-regulated kinase 2 (Homo sapiens) (UniProt Q92630).
T4 sequence (whole entry): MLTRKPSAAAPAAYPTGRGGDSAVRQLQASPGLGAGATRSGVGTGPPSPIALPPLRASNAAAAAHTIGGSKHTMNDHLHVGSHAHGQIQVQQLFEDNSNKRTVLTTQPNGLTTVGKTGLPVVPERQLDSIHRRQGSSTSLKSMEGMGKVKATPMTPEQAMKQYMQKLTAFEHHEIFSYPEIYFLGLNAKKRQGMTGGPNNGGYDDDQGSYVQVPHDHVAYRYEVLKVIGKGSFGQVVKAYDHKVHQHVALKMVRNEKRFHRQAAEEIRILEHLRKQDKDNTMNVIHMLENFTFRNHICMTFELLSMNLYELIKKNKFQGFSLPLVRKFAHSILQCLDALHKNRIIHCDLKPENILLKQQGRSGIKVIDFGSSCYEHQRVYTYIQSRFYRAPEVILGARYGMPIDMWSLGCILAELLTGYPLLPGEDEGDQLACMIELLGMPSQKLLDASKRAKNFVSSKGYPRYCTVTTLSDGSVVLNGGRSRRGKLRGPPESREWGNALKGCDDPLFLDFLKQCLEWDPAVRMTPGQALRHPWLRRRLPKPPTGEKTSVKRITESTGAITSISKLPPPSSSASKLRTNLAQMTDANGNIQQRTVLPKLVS
The test can be described thus: Binding affinity to recombinant DYRK2 (unknown origin) assessed as change in melting temperature 10 uM by differential scanning fluorimetry.

In test [22] the target is BMP-2-inducible protein kinase (Homo sapiens) (UniProt Q9NSY1). The test can be described thus: Binding affinity to recombinant BMP2K (unknown origin) assessed as change in melting temperature 10 uM by differential scanning fluorimetry.
Test [23] addresses RAC-alpha serine/threonine-protein kinase (Mus musculus) (UniProt P31750). The test is classed as cell-based. The note with it: BaF3, dose 10-1000 nM, time 8.0 hrs. This is another data set of the same source.

SMILES strings stand for the structures. pIC50: −log10 of the molar value. Calls of active or inactive are those of the source. The calls are words filed in the database; no cut-off is given here. Where only a bound is given, the exact number is not on record here.

T1 sequence (P63085 whole entry, looked up): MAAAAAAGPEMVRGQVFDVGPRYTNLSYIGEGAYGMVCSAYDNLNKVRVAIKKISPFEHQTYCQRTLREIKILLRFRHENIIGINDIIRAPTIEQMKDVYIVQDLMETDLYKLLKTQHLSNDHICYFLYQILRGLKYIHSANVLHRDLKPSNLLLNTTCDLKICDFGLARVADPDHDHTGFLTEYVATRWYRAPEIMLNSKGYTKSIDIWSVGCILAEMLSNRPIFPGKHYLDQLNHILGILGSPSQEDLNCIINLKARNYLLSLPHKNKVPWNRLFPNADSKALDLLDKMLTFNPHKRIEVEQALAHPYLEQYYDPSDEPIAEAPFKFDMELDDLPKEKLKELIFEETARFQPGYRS
T1 sequence (Q63844 whole entry, looked up): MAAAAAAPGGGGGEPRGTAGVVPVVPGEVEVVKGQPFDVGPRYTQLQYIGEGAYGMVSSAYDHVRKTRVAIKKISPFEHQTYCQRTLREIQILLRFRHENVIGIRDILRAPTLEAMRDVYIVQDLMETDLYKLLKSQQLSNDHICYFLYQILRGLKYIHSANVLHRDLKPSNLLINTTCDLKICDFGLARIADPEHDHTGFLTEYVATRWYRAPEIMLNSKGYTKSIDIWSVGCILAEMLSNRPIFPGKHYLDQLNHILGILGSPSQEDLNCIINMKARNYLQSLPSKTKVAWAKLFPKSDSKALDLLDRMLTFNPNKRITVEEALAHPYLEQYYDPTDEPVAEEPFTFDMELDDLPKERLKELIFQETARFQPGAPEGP
Sequence of RAC-alpha serine/threonine-protein kinase (Mus musculus) (P31750 whole entry): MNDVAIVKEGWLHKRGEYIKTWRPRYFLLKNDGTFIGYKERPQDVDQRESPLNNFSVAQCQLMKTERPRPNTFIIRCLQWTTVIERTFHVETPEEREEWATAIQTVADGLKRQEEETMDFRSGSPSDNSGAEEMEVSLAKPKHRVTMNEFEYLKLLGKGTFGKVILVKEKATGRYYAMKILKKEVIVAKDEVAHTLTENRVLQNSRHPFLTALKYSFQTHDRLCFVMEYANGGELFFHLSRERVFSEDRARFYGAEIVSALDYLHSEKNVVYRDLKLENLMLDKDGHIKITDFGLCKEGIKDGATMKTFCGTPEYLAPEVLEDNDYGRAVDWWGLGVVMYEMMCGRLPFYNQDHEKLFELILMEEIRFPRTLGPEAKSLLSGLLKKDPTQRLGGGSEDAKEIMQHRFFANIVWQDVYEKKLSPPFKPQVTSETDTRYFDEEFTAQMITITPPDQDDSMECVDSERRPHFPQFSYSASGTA
Sequence of BMP-2-inducible protein kinase (Homo sapiens) (Q9NSY1 whole entry, looked up): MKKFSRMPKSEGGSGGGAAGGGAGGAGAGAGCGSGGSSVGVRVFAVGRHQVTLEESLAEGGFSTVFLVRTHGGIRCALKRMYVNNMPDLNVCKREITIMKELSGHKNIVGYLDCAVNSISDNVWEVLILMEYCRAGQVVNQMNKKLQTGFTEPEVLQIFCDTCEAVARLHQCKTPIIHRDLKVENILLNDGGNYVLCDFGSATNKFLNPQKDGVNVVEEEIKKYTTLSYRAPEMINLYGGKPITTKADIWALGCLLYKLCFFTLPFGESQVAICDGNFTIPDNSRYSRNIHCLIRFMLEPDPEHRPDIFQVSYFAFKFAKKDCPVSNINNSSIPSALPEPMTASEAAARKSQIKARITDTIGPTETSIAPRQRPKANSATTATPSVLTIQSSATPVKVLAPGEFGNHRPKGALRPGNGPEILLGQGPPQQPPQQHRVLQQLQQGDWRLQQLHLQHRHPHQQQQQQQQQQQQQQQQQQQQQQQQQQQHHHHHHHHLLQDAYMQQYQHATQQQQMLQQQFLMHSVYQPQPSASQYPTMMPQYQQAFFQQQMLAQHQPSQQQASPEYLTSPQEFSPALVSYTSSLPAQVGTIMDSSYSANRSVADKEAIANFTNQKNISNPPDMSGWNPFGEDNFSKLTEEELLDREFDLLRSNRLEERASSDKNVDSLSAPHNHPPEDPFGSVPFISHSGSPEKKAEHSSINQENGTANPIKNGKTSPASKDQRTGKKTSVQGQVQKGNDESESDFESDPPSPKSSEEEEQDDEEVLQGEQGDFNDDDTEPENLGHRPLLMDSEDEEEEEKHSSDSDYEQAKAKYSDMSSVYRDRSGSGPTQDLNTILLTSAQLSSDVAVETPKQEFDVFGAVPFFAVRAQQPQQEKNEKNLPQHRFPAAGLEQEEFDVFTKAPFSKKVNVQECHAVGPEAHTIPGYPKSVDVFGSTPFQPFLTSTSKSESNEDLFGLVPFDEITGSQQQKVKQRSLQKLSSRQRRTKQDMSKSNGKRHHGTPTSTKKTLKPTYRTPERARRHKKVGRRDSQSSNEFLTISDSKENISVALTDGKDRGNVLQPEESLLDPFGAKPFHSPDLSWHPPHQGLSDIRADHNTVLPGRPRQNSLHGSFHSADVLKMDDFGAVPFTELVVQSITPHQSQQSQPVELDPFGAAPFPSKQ
Sequence of Epidermal growth factor receptor (Homo sapiens, UniProt P00533, L858R) (P00533 25-1210 L858R limits assumed): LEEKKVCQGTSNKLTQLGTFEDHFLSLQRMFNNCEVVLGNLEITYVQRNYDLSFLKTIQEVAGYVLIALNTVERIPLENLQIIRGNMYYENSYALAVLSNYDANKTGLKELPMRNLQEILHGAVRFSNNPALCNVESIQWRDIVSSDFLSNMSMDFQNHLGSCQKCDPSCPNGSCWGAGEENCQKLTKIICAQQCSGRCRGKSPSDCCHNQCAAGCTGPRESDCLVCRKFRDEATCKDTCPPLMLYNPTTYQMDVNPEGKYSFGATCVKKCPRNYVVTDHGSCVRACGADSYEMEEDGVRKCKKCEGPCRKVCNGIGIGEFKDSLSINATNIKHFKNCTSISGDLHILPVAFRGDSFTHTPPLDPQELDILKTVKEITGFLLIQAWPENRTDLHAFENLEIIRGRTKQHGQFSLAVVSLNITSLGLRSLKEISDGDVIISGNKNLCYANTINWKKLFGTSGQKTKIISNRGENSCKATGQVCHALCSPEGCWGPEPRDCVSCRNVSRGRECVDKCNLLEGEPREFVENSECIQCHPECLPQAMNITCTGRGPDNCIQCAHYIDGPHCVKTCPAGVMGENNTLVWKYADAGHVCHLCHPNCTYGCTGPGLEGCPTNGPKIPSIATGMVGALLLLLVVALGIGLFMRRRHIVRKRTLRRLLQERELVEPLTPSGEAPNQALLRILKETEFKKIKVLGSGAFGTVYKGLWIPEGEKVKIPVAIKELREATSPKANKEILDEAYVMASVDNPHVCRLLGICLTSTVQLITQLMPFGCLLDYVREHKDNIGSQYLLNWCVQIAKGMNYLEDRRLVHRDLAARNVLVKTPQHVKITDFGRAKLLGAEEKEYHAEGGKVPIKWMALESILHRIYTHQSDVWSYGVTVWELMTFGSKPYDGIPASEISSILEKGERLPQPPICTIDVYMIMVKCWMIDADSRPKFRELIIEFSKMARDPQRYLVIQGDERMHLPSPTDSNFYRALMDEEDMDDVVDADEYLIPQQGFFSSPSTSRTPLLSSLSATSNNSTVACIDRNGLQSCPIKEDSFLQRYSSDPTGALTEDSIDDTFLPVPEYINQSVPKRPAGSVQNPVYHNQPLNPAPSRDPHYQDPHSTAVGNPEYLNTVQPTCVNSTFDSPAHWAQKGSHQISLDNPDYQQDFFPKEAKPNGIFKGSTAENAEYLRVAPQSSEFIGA
Sequence of Epidermal growth factor receptor (Homo sapiens, UniProt P00533) (P00533 whole entry): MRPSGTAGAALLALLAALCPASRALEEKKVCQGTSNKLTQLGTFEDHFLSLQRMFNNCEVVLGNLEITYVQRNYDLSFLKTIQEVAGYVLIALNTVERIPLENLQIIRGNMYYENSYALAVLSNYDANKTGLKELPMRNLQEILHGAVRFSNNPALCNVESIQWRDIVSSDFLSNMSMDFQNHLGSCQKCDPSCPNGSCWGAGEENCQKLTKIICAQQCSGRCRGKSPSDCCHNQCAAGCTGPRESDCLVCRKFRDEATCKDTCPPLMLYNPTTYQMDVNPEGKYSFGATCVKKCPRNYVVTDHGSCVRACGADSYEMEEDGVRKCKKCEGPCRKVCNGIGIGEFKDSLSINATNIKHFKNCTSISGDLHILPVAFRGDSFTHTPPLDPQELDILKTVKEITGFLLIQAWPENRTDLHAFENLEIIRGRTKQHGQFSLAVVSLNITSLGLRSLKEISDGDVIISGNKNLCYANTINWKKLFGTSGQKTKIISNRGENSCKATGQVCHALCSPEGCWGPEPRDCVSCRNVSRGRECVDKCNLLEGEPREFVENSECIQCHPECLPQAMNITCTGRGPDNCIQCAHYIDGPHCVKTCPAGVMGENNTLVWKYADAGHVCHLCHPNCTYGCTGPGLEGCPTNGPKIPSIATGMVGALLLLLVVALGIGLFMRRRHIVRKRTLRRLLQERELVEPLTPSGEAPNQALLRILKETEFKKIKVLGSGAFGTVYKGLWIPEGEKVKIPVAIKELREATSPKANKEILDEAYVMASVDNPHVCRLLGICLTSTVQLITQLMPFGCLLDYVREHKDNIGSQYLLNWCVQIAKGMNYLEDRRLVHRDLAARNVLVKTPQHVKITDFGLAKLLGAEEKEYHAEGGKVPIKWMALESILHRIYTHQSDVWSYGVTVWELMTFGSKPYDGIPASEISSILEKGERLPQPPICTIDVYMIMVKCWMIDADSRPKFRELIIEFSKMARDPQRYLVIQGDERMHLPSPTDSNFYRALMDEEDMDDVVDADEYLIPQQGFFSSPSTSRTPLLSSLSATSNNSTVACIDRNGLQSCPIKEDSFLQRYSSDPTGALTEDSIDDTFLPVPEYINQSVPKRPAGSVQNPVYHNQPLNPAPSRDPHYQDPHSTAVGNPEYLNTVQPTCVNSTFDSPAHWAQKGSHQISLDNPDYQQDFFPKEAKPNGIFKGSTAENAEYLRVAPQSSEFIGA

`COc1cc2ncnc(Nc3cc(Cl)c(F)cc3O)c2cc1O`: the pIC50 in the test on BaF3 [1] is 7.03; in test [2] it was 7.94; in test [5], 7.73; in test [7], 5.75; in the test on BaF3 [8], 6.92; in the test with BaF3 [11] it was 6.92. Moreover, the values for the negative-log IC50 (pIC50) in the test on BaF3 [15], with BaF3 [16] and with BaF3 [18] were 5.29, 6.85 and 6.69, respectively. Besides, the inhibition result in [3], in test [6], in test [9], in test [10], in test [13] and in [14] was “Active” throughout. The inhibition result in test [17], in test [19] and in test [23] was “Active” each time. Further, the ΔTm in test [4], in test [12], in test [20], in [21] and in [22] was above 3 °C throughout.

The pIC50 is the negative decadic logarithm of the IC50, by convention in mol/L. Low readings indicate a large IC50, high ones a small IC50. The term ΔTm denotes the shift of the melting midpoint relative to a reference.

The record behind these values is ChEMBL document CHEMBL5150044, “Macrocyclization of Quinazoline-Based EGFR Inhibitors Leads to Exclusive Mutant Selectivity for EGFR L858R and Del19” (J Med Chem, 2022).
